Measured values as given in US5869023A, “Composition for MRI comprising both a positive and a negative contrast agent” (Nycomed Imaging AS, priority 1993, dated 1999).
“Also recorded” adds a separate entry of the source.

Experiments:
[1] = system: infarcted and nonischemic myocardium; settings: cited from earlier work; for distribution / enhancement in 6-hour-old myocardial infarction: porcine model
[2] = in vivo; cited from earlier work
[3] = system: infarcted and non-ischemic myocardium; settings: pig, in vivo; for time of early peak in dialysate: iv
Procedure: (§1) Myocardial infarction was induced in 5 anaesthetized pigs of either sex (weight 25-30 kg) by ligating a diagonal branch of the left anterior descending artery (LAD), at thoracotomy. Microdialysate probes were inserted in ischemic and non-ischemic myocardium. The pigs were sacrificed 2 hours after administration of contrast media. 4 hour post occlusion Gd-DTPA-BMA (0.3 mmol/kg) and Dy-DTPA-BMA (1.0 mmol/kg) were simultaneously administered in vivo with an injection time of one minute. The total occlusion time was thus 6 hours.
(§2) The microdialysate was collected every 10 minutes and measured for gadolinium and dysprosium using inductively coupled plasma atomic emission spectrometry (ICP-AES). The microdialysis equipment consisted of a CMA®/20 microdialysis probe with a 10 mm flexible membrane and a diameter of 0.5 mm (CMA AB, Stockholm, Sweden). […] The probe was perfused with a Krebs-Ringer phosphate buffer (pH 7.4) at a speed of 2 μl/min and a dead space, in the system, of 10 μl. […] One probe was inserted into the central part of the ischemic area and another probe was placed in non-ischemic myocardium in the lateral wall using the Seldinger technique to minimize mechanical injury to myocardium and probe membrane. A CMA® microdialysis pump (CMA 100) was used with two syringes to perfuse the probes.
(§3) In addition, gadolinium and dysprosium were determined in dialysates from five pigs by ICP-AES. Twenty μl portions were sampled in plastic tubes and kept frozen until analysis. The samples were diluted to 5.02 ml with ultra-pure water. To enhance the sensitivity of measurements, an ultrasonic nebulizer was used instead of the pneumatic one. The limit of detection for the method is about 2 μg/l for both gadolinium and dysprosium in the measuring solution. This means that about 3 μmol/l can be detected in the dialysates.

[4] = system: infarcted and non-ischemic myocardium; settings: pig, in vivo
Procedure: as §1
The total amount of gadolinium and dysprosium in samples of infarcted and non-ischemic myocardium was quantified by ICP-AES.
Paired t-tests (two-tailed) were used to compare the gadolinium and dysprosium content, respectively, in infarcted and non-ischemic myocardium within the group. […] In addition, the extracellular concentrations of gadolinium and dysprosium were further compared with the content of gadolinium and dysprosium in tissue samples.

myocardial infarction = settings: first positive, second negative agent, sequential; cited from earlier work
[5] = system: infarcted and non-ischemic myocardium; assay: Microdialysis kinetics of Gd and Dy in extracellular space of pig myocardium (Example 5); settings: for concentration course in dialysate / duration of plateau in dialysate: infarcted myocardium; for concentration in dialysate after early peak: non-ischemic myocardium
Procedure: as §1, §2, §3

[6] = system: normal and infarcted myocardium; settings: rat, in vivo; for concentration ratio, reperfused infarcted vs normal myocardium: 15 min
Procedure: Thirty seven Sprague Dawley rats (200-400 gm) were anaesthetized by an intraperitoneal injection of sodium pentobarbital (50 mg/kg body weight). After tracheostomy, animals were ventilated using a small animal respirator. The heart was exposed following a left thoracotomy through the 4th intercostal space and a surgical suture was used to ligate the anterior branch of the left coronary artery near its origin beneath the left atrial appendage using a snare ligature. The presence of occlusion was visually confirmed by noting the development of myocardial cyanosis. After 1 hour occlusion, reperfusion was initiated by loosening the snare ligature. A catheter was placed into a femoral vein to inject contrast media. All animals which received contrast agent were administered doses at 45 minutes of reflow. After 1 hour reperfusion, each heart was excised and rinsed in 0.9% saline, patted dry with gauze, and a cotton swab was inserted into the left ventricular cavity to expand the chamber. Each heart was wrapped in clear plastic wrap to minimise dehydration during imaging.
To group 1 rats (n=9) were administered 0.2 mmol/kg of GdDTPA-BMA immediately followed by 1.0 mmol/kg of DyDTPA-BMA. Group 2 (n=7) received no contrast agents. Two spin-echo images were obtained from the midventricle of each heart, a T1-weighted image with TR/TE=300/20 and NEX=4, and T2-weighted image with TR/TE=3000/60 and NEX=2. After imaging, each heart was sliced at the midventricular level and soaked in a 2% solution of TTC at 37° C. for 15 minutes to define myocardial infarction.
Samples of normal and infarcted myocardium were retained for analysis of Gd and Dy content by means of ICP-MS.

[7] = system: normal and reperfused infarcted myocardium; assay: MR imaging and T2/T2* relaxation of rat hearts after single agents, protocol 2 (Example 6); assay type: in vivo, Sprague Dawley rats; settings: for T2, infarct / T2, normal myocardium: four-echo T2-weighted, TR=4000 ms; for GRE signal intensity, infarct / GRE signal intensity, normal myocardium: gradient recalled echo images, Dy 1.0 mmol/kg n=11 or Gd 0.2 mmol/kg n=7; for T2*, infarct / T2*, normal myocardium: gradient-recalled images, TE=10, 15, 20 and 30 ms; for SE T1 signal intensity, infarct / SE T1 signal intensity, normal myocardium: spin echo T1 weighted, TR/TE=300/20 ms; for SE T2 signal intensity, infarct / SE T2 signal intensity, normal myocardium: spin echo T2 weighted, TR/TE=4000/80 ms
Description: Images were acquired at room temprature using a GE CSI 2.0 T system. Each heart was positioned with its long axis parallel to the main magnetic field such that axial images would present short axis views of the heart. All images were obtained using a slice thickness of 2 mm, FOV of 30 mm, and a raw data matrix of 128×256 interpolated to 256×256 during reconstruction. TR/TE settings used for spin echo images are indicated below. Gradient echo images were obtained using a TR of 600 ms, with the radio frequency pulse power set very low such that no signal saturation was evident following multiple pulses and images would contain no T1 weighting.
Group 3 (n=11) received 1.0 mmol/kg DyDTPA-BMA, group 4 (n=7) received 0.2 mmol/kg of GdDTPA-BMA and group 5 (n=7) received no contrast agents. The imaging protocol for each heart consisted of spin echo T1-weighted (TR/TE=300/20 ms, NEX=4) and T2-weighted (TR/TE=4000/80 ms; NEX=2), a set of four-echo T2-weighted images (TR=4000 ms, TE=20, 40, 60 and 80 ms, NEX=2) for estimation of regional T2 values, and a set of gradient-recalled images (TE=10, 15, 20 and 30 ms, NEX=4) for estimation of region T2* values. TTC staining of the heart was performed to verify the presence of infarction.
Signal intensities were measured from ROIs selected over infarcted and uninfarcted myocardium. The same ROIs were applied to all images obained from each heart.
A series of gradient recalled and spin echo MR images were obtained to resolve the effects of GdDTPA-BMA on T2-weighted images and DyDTPA-BMA on T1-weighted images and also to more thoroughly characterize the differences in contrast media-induced T2 and T2* enhancement between infarcted and normal myocardium. Table III summarises the observed alterations in regional signal intensity and relaxation rates following administration of either GdDTPA-BMA or DyDTPA-BMA.

[8] = system: infarcted and non-ischemic myocardium; assay: MR imaging of excised pig hearts, double contrast (Example 5); assay type: in vivo
Procedure: The total occlusion time was thus 6 hours.
Following sacrifice, the hearts were extirpated and rinsed in isotonic saline to remove remaining blood. The hearts were examined ex vivo at ambient temperature in the MR equipment and then cut into approximately 8 mm thick transverse slices and soaked for 10-20 minutes in a 1% aqueous solution of triphenyltetrazolium chloride (TTC) at 37° C. TTC stains non-ischemic myocardium brick red. The slices were inspected visually for unstained areas of infarction.
MR images were obtained in an identical manner to that described in Example 4.
In the transverse images, three ROI's were placed in infarcted myocardium. Four ROI's were placed in non-ischemic myocardium, two in the anterior wall and two in the posterior wall of the left ventricle. The mean signal intensity (S) was measured in each ROI. One ROI was placed anterior to the heart in an area free from visible artefacts, in order to measure the standard deviation (SD) of the background signal. These measurements were used to calculate the contrast (C) and contrast-to-noise (C/N) ratios between infarcted (inf) and non-ischemic (nonisch) myocardium using the formulae defined in Example 4.
In each heart, non-ischemic myocardium and infarction were represented by a mean value from measurements in two slices.

Human blood samples = assay: In vitro MR imaging of contrast agent doped human blood samples, viable vs freeze-injured cells (Example 2); assay type: cell-based
Procedure: Human blood samples with different hematocrit readings (Ht) of 27%, 45% and 69% were prepared to provide sample models for different levels of compartmentalization between intracellular and extracellular fluids. To initiate cellular level injury, samples with these Ht readings were frozen to effect cell membrane destruction. Finally a control sample of cell free plasma was also used.
To the test samples were added (a) a positive ECF contrast agent (GdDTPA-BMA at a dosage corresponding to 0.2 mmol Gd/kg); (b) a negative ECF contrast agent (DyDTPA-BMA at a dosage corresponding to 0.6 mmol Dy/kg); and (c) a positive ECF contrast agent and a negative ECF contrast agent (GdDTPA-BMA and DyDTPA-BMA at dosages corresponding to 0.2 mmol Gd/kg and 0.6 mmol Dy/kg).
These doped samples, and controls to which no contrast agent was added, were imaged together at ambient temperature in the head coil of a Siemens Magnetom operating at 0.5 T using T1 -weighted (TR/TE 500/30 ms), T2 -weighted (TR/TE 1500/90 ms) and proton density-weighted (TR/TE 1500/30 ms) echo sequences. The signal intensity for each contrast agent doped sample was normalized to the corresponding undoped sample and the results are set forth as ratios in FIGS. 1 to 3 hereto, squares, circles and diamonds representing the ratios for T1 -weighted, PD-weighted and T2 -weighted sequences respectively.

[9] = system: infarcted and nonischemic myocardium; assay: Ex vivo MR imaging of pig hearts, myocardial infarction model (Example 4); assay type: in vivo; settings: Dy DTPA-BMA 1.0 mmol/kg plus Gd DTPA-BMA 0.3 mmol/kg
Procedure: A control group received no contrast agent.
Following sacrifice, the hearts were extirpated and rinsed in isotonic saline to remove remaining blood. The hearts were examined ex vivo at ambient temperature in the MR equipment and then cut into thin transverse slices and soaked for about 20 minutes in a 1% aqueous solution of triphenyltetrazolium chloride (TTC) at 37° C. The slices were then visually inspected for unstained areas corresponding to infarction.
MR examination was performed in a superconductive whole body equipment (Siemens Magnetom) operating at 0.5 T. The hearts were investigated with saggital and transverse multi-slice spin-echo images with TR/TE of 500/30 (two excitations), 1500/30,70 and 1500/30,120 (single excitations) using a saddle-shaped coil with a diameter of 13 cm. The following parameters were used: Slice thickness 7 mm. Interslice gap 20%. Acquisition matrix 256×256 giving a resolution of 0.7×0.7 mm.
In the transverse images regions of interest (ROI's) were placed in infarcted and nonischemic myocardium, in a corn oil phantom and in front of the heart (noise). The mean signal intensity (SI) was measured in each ROI.
In addition, the SD was measured in the noise. […]

| SMILES | distribution / enhancement in 6-hour-old myocardial infarction [1] | time to plateau concentration in dialysate [3] | time of early peak in dialysate [3] | distribution in infarcted heart (myocardial infarction) | concentration course in dialysate [5] | duration of plateau in dialysate [5] | concentration in dialysate after early peak [5] | metal content in infarcted region vs normal myocardium [6] | concentration ratio, reperfused infarcted vs normal myocardium [6] | differential enhancement of reperfused infarction, T1-weighted ([7]; T1-weighted images) | delineation of infarcted region, T2-weighted ([7]; T2-weighted images) | signal intensity of infarcted region, T2-weighted ([7]; T2-weighted images) | signal intensity of normal region, T2-weighted ([7]; T2-weighted images) | T2, infarct [7] | T2, normal myocardium [7] | GRE signal intensity, infarct [7] | GRE signal intensity, normal myocardium [7] | T2*, infarct [7] | T2*, normal myocardium [7] | SE T1 signal intensity, infarct [7] | further results |
| --- | --- | --- | --- | --- | --- | --- | --- | --- | --- | --- | --- | --- | --- | --- | --- | --- | --- | --- | --- | --- | --- |
| O=C([O-])CN(CCN(CC(=O)[O-])CC(=O)O)CCN(CC(=O)[O-])CC(=O)O.[Gd+3] [Gd-DTPA, reference compound] | infarct accumulation |  |  |  |  |  |  |  |  |  |  |  |  |  |  |  |  |  |  |  |  |
| CNC[C@H](O)[C@@H](O)[C@H](O)[C@H](O)CO.CNC[C@H](O)[C@@H](O)[C@H](O)[C@H](O)CO.O=C([O-])CN(CCN(CC(=O)[O-])CC(=O)O)CCN(CC(=O)[O-])CC(=O)O.[Gd+3] [Gd DTPA-dimeglumine] |  |  |  |  |  |  |  |  |  |  |  |  |  |  |  |  |  |  |  |  | distribution after intravenous administration [2]: rapidly distributes throughout the extracellular fluid (ECF) |
| CNC(=O)CN(CCN(CCN(CC(=O)[O-])CC(=O)NC)CC(=O)[O-])CC(=O)[O-].[Gd+3] [GdDTPA-BMA, reference compound] | infarct accumulation | 20 to 30 min | ≤ 10 min | distributed to the infarcted area of the heart | increased gradually | 60 min | diminished with time | commensurably greater content of gadolinium in that region than in normal myocardium | approximately 2.5 fold | significant differential enhancement | delineated by both agents | significantly reduced compared to hearts with no contrast | not different from that of hearts with no contrast | 31.1 ± 1.2 ms | 34.7 ± 0.7 ms | 185 ± 49 | 200 ± 40 | 13.2 ± 1.5 ms | 17.1 ± 2.2 ms | 350 ± 34 | concentration in infarcted vs non-ischemic myocardium [4]: more than threefold higher concentration; enhancement of infarcted region, single agent vs both agents ([7]; T1-weighted images): significantly less than that noted when both agents were present; SE T1 signal intensity, normal myocardium [7]: 184 ± 21; SE T2 signal intensity, infarct [7]: 35 ± 7; SE T2 signal intensity, normal myocardium [7]: 42 ± 4; infarction signal / visualization ([8]; T1- and proton density-weighted, vs no contrast agent or Dy-DTPA-BMA only): enhanced infarction signal in the T1- and proton density-weighted sequences, resulting in improved infarction visualization; signal intensity ratio (doped/undoped), T1-weighted (Human blood samples; T1-weighted TR/TE 500/30 ms, 0.5 T): increased signal intensity effect; signal intensity ratio (doped/undoped), other sequences (Human blood samples; T2-weighted (1500/90) and proton density-weighted (1500/30)): barely noticed in the other sequences; discrimination between "viable" and "non-viable" samples (Human blood samples; all sequences): no significant discrimination |
| CNC(=O)CN(CCN(CCN(CC(=O)[O-])CC(=O)NC)CC(=O)[O-])CC(=O)[O-].[Dy+3] [DyDTPA-BMA] |  | 20 to 30 min | ≤ 10 min | allowed essentially only to distribute to the normal tissue resulting in the generation of enhanced contrast between normal and infarcted tissue | increased gradually | 60 min | diminished with time | greater amount of dysprosium in the infarcted zone | approximately 2.5 fold | significant differential enhancement | delineated by both agents | much less reduction in signal of the infarcted region | great suppression of normal myocardium signal | 35.8 ± 1.0 ms | 25.9 ± 0.6 ms | 191 ± 34 | 105 ± 18 | 17.7 ± 1.2 ms | 9.4 ± 0.5 ms | 141 ± 14 | infarct detection / conspicuity ([1]; T1- and T2-weighted sequences): improves the infarct detection due to susceptibility-induced loss of signal intensity in nonischemic myocardium; signal effect of accumulation in infarcted myocardium ([1]; infarcted myocardium): does not seem to result in signal loss but maintains a persistent intensity relative to the depleted signal in normal myocardium; effect of negative agent on T1 enhancing effect of positive agent in infarcted area [9]: does not cancel the T1 enhancing effect of the positive agent in the infarcted area; contrast between infarcted and normal region vs both agents ([7]; T2-weighted images): greater contrast between the two regions than was noted when both agents were administered; SE T1 signal intensity, normal myocardium [7]: 88 ± 7; SE T2 signal intensity, infarct [7]: 42 ± 4; SE T2 signal intensity, normal myocardium [7]: 12 ± 1; counteraction of Gd-DTPA-BMA induced signal enhancement by Dy-DTPA-BMA ([8]; all investigated sequences, infarcted tissue): not significantly counteracted; also recorded: did not counteract the Gd-DTPA-BMA induced enhancement of the infarcted tissue; susceptibility induced (Dy induced) signal intensity reduction in infarctions ([8]; infarctions): lack of detectable susceptibility induced (i.e. Dy induced) signal intensity reduction effects in the infarctions; signal intensity, "viable" sample (Human blood samples; all sequences, most markedly T2-weighted): signal intensity fell with increasing Ht reading; signal intensity, "non-viable" samples (Human blood samples; frozen samples, all sequences): no effect |
